Source: article PMC5727842, “Antioxidant and Antidiabetic Effects of Flavonoids: A Structure-Activity Relationship Based Study” (BioMed Research International, 2017)

What was measured:
[1] = Rapid screening of radical scavenging activity by dot blot assay (DPPH staining); settings: silica sheet stained with DPPH in MeOH, dilutions from 1000 μg/mL
Method: An aliquot (20 μL) of each dilution of each group was carefully loaded on a […] TLC plate and allowed to dry for 10 min. Drops of each sample were loaded in the order of decreased concentration along the 16 columns. The staining of the silica plate was based on the procedure of Soler-Rivas et al.. […] The intensity of the yellow color depends upon the amount and nature of radical scavenger present in the flavonoids.

[2] = DPPH radical scavenging assay; settings: 30 min, 517 nm, mean ± SEM (n = 3)
Method: Each sample's stock solution was diluted to final concentrations of 1000–0.4889 μg/mL in MeOH. A total of 1 mL of a 0.3 mM DPPH methanolic solution was added to 2.5 mL of sample solution of different concentrations and allowed to react at room temperature. After 30 min, the absorbance (Abs) values were measured at 517 nm with a microplate reader (Tecan NanoQuant Infinite M200, Switzerland) and converted into the percentage antioxidant activity using the following equation described previously: (1) % antioxidant activity=100−Abssample−Abssample blank/Abscontrol−Abscontrol blank×100. MeOH + compound solution was used as a blank, while DPPH solution plus MeOH was used as a negative control. The positive controls were DPPH solution plus 1 mM ascorbic acid. The IC50 values were calculated by linear regression of plots. The average percent of scavenging capacity was taken from three replicates.

[3] = ABTS+ radical scavenging assay; settings: 734 nm, mean ± SEM (n = 3)
Method: An improved ABTS^+ radical decolorization assay was carried out involving direct production of the blue/green ABTS^+ chromophore through the reaction between ABTS and potassium persulfate. Addition of antioxidant to the preformed radical cation reduces it to ABTS to an extent on a time scale depending on the antioxidant activity, the concentration of the antioxidant, and the duration of the reaction. 1 ml ABTS was dissolved in water to make 7 mM concentration of the resultant solution. […] The resultant reaction mixture was allowed to stand in the dark at room temperature for 12–16 h before being used. The ABTS^+ radical solution was diluted with MeOH to an absorbance of 0.7 (±0.02) at 734 nm. Then, 100 μl of sample at various concentrations (1000–0.4889 μg/mL) was mixed with 100 μL of diluted ABTS^+ radical. Each concentration was analyzed in triplicate and the percentage decrease of absorbance at 734 nm with a microplate reader (Tecan NanoQuant Infinite M200, Switzerland) was calculated for each point and the antioxidant capacity of the tested compounds was expressed as percent inhibition (%). The radical scavenging activity of the compounds was measured according to the following equation [29]:(2) % inhibition=Acontrol−Asample/Acontrol×100. IC50 values were calculated by linear regression of plots, and the average percent of scavenging capacity was taken from three replicates. Trolox was used as a standard in comparison for the determination of the antioxidant activity of the flavonoids.

[4] = target: T1, xanthine oxidase from buttermilk (Bos taurus, UniProt P80457); test: Xanthine oxidase inhibitory assay (XOI); format: biochemical; settings: for xanthine oxidase inhibitory effect (in words): discussion
T1 construct: 0.3 U/mL enzymes (xanthine oxidase from buttermilk); purchased Sigma-Aldrich (Singapore); host or cells: buttermilk (natural source)
T1 sequence (P80457 whole entry): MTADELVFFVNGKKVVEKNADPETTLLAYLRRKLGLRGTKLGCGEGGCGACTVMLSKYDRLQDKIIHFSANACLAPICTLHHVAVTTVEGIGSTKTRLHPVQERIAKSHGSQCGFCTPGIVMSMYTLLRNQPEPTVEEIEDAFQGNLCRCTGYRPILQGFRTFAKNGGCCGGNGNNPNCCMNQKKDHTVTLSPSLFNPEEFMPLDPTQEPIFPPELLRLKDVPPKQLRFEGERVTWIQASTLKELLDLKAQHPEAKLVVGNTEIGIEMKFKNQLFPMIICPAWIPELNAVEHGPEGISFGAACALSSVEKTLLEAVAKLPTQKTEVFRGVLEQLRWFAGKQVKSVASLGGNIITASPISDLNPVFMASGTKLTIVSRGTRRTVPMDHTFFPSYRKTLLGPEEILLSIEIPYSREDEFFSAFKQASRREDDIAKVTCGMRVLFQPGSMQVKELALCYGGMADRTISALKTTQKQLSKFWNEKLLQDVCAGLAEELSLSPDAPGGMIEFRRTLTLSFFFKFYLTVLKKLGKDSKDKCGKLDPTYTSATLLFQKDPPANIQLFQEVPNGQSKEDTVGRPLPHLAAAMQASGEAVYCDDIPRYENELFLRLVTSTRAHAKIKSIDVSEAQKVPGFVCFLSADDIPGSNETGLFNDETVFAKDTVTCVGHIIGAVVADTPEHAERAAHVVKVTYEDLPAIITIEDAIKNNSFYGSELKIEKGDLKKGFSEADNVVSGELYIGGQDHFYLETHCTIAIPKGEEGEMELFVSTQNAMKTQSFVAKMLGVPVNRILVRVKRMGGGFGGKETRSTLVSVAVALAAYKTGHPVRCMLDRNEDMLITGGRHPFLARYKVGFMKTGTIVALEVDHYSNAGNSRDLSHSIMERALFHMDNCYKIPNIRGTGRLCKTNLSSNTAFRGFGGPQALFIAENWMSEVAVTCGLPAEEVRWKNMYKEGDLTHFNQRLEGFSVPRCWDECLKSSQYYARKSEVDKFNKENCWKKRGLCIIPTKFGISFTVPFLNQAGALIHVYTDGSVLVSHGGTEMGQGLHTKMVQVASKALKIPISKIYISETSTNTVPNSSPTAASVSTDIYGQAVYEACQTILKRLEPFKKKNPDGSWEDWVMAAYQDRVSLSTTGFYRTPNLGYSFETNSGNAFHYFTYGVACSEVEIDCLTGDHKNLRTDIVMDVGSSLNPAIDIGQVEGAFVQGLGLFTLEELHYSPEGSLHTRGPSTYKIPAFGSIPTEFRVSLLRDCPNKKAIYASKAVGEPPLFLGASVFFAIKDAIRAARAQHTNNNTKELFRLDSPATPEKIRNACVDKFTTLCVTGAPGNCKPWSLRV
Method: XO catalyzes the oxidation of hypoxanthine to xanthine and subsequently to uric acid. The inhibition of XO reduces both vascular oxidative stress and circulating levels of uric acid. This assay is based on the fact that the superoxide anions are generated by the xanthine. The xanthine oxidase inhibitory activity was measured spectrophotometrically (Tecan NanoQuant Infinite M200, Switzerland) at 295 nm under aerobic condition with slight modification. The reaction mixture contained 50 mM phosphate buffer (pH 7.5), 0.15 mM xanthine (substrate), and 0.3 U/mL enzymes (xanthine oxidase from buttermilk). Samples were prepared by dissolving 1 mg in 5% DMSO in MeOH which gives sample concentration of 144.0 μg/mL in assay. […] The absorption increment at 295 nm indicates the formation of […] of uric acid/min at 25°C. […] All determination was done in triplicate and half maximal concentration (IC50) values were calculated from the percentage of inhibition. XO inhibition activity was expressed as the percentage inhibition of XO as follows:(3) % of inhibition=AbsA−B−C−D/AbsA−B×100, where A is the negative control with B as the blank of A which is without the enzyme and the sample while C is the activity of the sample with enzyme with D as the blank of the sample without enzyme.

[5] = Ferric reducing antioxidant power (FRAP); settings: for FRAP (AAE μg): ascorbic acid equivalent, mean ± SEM (n = 3), Table 2
Method: This assay was based on the reduction of the ferric tripyridyltriazine (Fe III-TPTZ) complex to the ferrous ion (Fe II) at a low pH forming an intense blue color. In the FRAP assay, compounds that are rich in antioxidant effect exert their action by breaking the free radical chain by donating a hydrogen atom. Briefly, ferric reducing antioxidant power (FRAP) reagent (2.5 mL of a 10 mM TPTZ solution in 40 mM HCl, 2.5 mL of 20 mM FeCl3, and 25 mL of 0.1 M acetate buffer pH 3.6) was prepared and incubated for 10 min at 37°C. Then 20 μL of each compound and ascorbic acid (standard) and 40 μL of FRAP reagent were added to 140 μL of distilled water in a 96-well plate producing a blue-colored solution. The solutions were kept at room temperature for 20 min in the dark and then measured at 593 nm with a microplate reader (Tecan, Switzerland) using a reagent blank composed of 40 μL of FRAP reagents in 200 μL of distilled water. A calibration curve was prepared with a serial dilution of ascorbic acid (standard). The total antioxidant capacity was calculated by interpolating the measured absorbance of the calibration curve and expressed as ascorbic acid equivalents. The results were corrected for dilution and expressed as AAE μg of ascorbic acid/g.

DPP-4 = target: T2, DPP-4 (Homo sapiens, UniProt P27487); test: Dipeptidyl peptidase IV (DPP-4) inhibitory assay; format: biochemical; settings: Table 3; mean ± SEM (n = 3); NA: not active
T2 construct: purchased Cayman (Michigan, USA)
T2 sequence (P27487 whole entry): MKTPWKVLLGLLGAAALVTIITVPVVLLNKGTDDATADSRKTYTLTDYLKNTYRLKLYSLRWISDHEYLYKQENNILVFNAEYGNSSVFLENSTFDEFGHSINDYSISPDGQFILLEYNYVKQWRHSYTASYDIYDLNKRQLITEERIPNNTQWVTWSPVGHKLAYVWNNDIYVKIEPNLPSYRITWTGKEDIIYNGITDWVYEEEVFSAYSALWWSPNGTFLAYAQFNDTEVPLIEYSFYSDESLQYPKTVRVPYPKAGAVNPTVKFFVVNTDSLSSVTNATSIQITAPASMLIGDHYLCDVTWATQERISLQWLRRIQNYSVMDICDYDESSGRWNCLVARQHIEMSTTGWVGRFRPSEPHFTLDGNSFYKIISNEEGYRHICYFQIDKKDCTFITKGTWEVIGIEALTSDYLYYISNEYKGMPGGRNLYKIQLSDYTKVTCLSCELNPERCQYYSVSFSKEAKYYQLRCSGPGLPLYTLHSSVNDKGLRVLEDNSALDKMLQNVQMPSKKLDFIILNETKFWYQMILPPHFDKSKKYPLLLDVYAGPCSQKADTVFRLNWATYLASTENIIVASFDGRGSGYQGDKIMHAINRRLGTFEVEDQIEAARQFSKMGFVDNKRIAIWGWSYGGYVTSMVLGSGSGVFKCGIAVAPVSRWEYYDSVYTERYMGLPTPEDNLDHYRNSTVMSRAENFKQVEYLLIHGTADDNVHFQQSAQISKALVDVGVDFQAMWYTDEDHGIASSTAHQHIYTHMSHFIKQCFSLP
Method: Dipeptidyl peptidase (IV) inhibitors work by inhibiting the action of this enzyme, thereby prolonging the activity of incretins that play an important role in insulin secretion and blood glucose control regulation. DPP-4 inhibitory assay was performed as per the standard method (Cayman, USA). Firstly, 1 mg of sample was dissolved in 10% of DMSO and MeOH as the stock solution. For initial activity (100%), 10 μL of MeOH, 30 μL of diluted assay buffer, and 10 μL of diluted DPP-4 (Cayman, USA) were added to 96-well microplate. […] For background well, 10 μL of MeOH and 40 μL of diluted assay buffer were added. Then, 10 μL of prepared sample and 30 μL of diluted assay buffer were added with 10 μL of diluted DPP-4. After that, 50 μL of substrate solution was added to all wells to initiate the reaction and further incubated in the dark at 37°C for 30 min. Finally, plate was read at 360 nm of excitation wavelength and 465 nm of emission wavelength using fluorescence microplate reader (Perkin Elmer, Germany). All determinations were done in triplicate and half maximal concentration (IC50) values were calculated from the percentage of inhibition based on the linear regression analysis. The equation given below was applied to calculate the inhibitory activity (%):(5) Inhibitory activity%=Initial Activity−Sample/Initial Activity×100%.
For DPP-4 inhibitory assay, the reaction is based on the cleavage of the peptide bond by DPP releasing the free Gly-Pro-aminomethylcoumarin group, a fluorogenic substrate resulting in fluorescence excitation and emission.

[6] = target: α-glucosidase from Saccharomyces cerevisiae; test: α-Glucosidase inhibitory assay; format: biochemical; settings: Table 3; mean ± SEM (n = 3); NA: not active
Method: α-Glucosidase inhibitory activity of the flavonoids was carried out according to the standard method with minor modification. […] A solution of 30 mM phosphate buffer (pH 6.5) was used to prepare stock solution of the sample to form a final concentration of 160 μg/mL. Then, 10 μL/well of sample was mixed with 15 μL/well of α-glucosidase from Saccharomyces cerevisiae (Megazyme, Ireland). 50 mM buffer (pH 6.5) was used to prepare the enzyme solution. Then, 115 μL/well of 30 mM buffer (pH 6.5) was added and incubated for 5 min at room temperature. Then, 75 μL/well of PNP-glucoside was added to initiate reaction and incubated at room temperature for 15 min. Finally, about 50 μL glycine at pH 10 was added to stop the reaction. The final volume of 250 μL of compound, positive control, enzyme, 30 mM buffer, and substrate was located in 96-well microplate. The absorbance (Abs) was measured using microplate reader (Tecan NanoQuant Infinite M200, Switzerland) at 405 nm to represent the amount of p-nitrophenol released from PNP-glucoside. […] The equation given below was used to calculate the inhibitory activity (%):(4) Inhibitory activity%=Abs control−Abs sample/Abs control×100%.
Tested on yeast α-glycosidase, the reaction is initiated by reacting the inhibitor (sample) with the α-glycosidase enzyme that competes with […] for the binding site, thus releasing ρ-nitrophenol which was measured in the assay.

SMILES	IC50 DPPH [2]	IC50 ABTS+ [3]	xanthine oxidase inhibitory effect (in words) [4]	IC50 (DPP-4) [µM]	IC50 ([4]; xanthine oxidase inhibition, 295 nm, mean ± SEM (n = 3), NA: not active) [µM]	radical scavenging activity by dot blot (intensity of yellow spots) [1]	FRAP antioxidant capacity [5]	FRAP (AAE μg) [5]	IC50 α-Glucosidase [6]
O=c1c(O)c(-c2ccc(O)cc2)oc2cc(O)cc(O)c12 [Kaempferol, 4′,3,5,7-Tetrahydroxyflavone]	10.89 ± 0.86^EF µg/ml	1.36 ± 0.22^FG µg/ml	significant xanthine oxidase inhibitory effect	160		strong radical scavenging activity	265.65 ± 5.46 AAE μg of ascorbic acid/g	265.65 ± 5.46^A AAE μg	
CC(=O)Oc1cc(OC(C)=O)c2c(=O)cc(-c3ccccc3)oc2c1OC(C)=O [Acetate (norwogonin), 5,7,8-Triacetoxyflavone]	>100^B µg/ml	78.99 ± 66.5^C µg/ml		> 252		did not show any spot	39.63 ± 1.01 AAE μg of ascorbic acid/g	39.63 ± 1.01^E AAE μg	
Oc1cc(O)c2c(c1)O[C@H](c1ccc(O)c(O)c1)[C@@H](O)C2 [(+)-Catechin]	14.34 ± 1.55^EF µg/ml	0.62 ± 0.05^G µg/ml	inactive			strong radical scavenging activity	152.07 ± 1.95 AAE μg of ascorbic acid/g	148.12 ± 4.40^C AAE μg	
COc1c(OC(C)=O)cc(OC(C)=O)c2c(=O)cc(-c3ccccc3)oc12 [Acetate (wogonin), 5,7-Diacetoxy-8-methoxyflavone]	>200^A µg/ml	>200^A µg/ml				did not show any spot	5.06 ± 3.24 AAE μg of ascorbic acid/g	5.06 ± 3.24^G AAE μg	>100^A µg/mg
O=C1O[C@H]([C@@H](O)CO)C(O)=C1O [Ascorbic acid, ascorbic acid, reference compound]	4.75 ± 0.91^GHa µg/ml						114.58 AAE μg of ascorbic acid/g	114.58 ± 0.27^Da AAE μg	
Oc1cc(O)c2c(c1)O[C@H](c1ccc(O)c(O)c1)[C@H](O)C2 [(−)-Epicatechin]	9.92 ± 0.33^F µg/ml	0.70 ± 0.08^G µg/ml	inactive			strong radical scavenging activity	152.14 ± 7.30 AAE μg of ascorbic acid/g	152.07 ± 1.95^C AAE μg	
O=c1c(O)c(-c2ccc(O)c(O)c2)oc2cc(O)cc(O)c12 [Quercetin, 3,3′,4′,5,7-Pentahydroxyflavone]	7.76 ± 0.99^FG µg/ml	0.83 ± 0.01^FG µg/ml	significant xanthine oxidase inhibitory effect	72		strong radical scavenging activity	148.12 ± 4.40 AAE μg of ascorbic acid/g	138.93 ± 6.22^C AAE μg	

Further lines, with some results ahead:

IC50 DPPH [2]	IC50 ABTS+ [3]	xanthine oxidase inhibitory effect (in words) [4]	IC50 (DPP-4) [µM]	IC50 ([4]; xanthine oxidase inhibition, 295 nm, mean ± SEM (n = 3), NA: not active) [µM]	SMILES	radical scavenging activity by dot blot (intensity of yellow spots) [1]	FRAP antioxidant capacity [5]	FRAP (AAE μg) [5]	IC50 α-Glucosidase [6]
>200^A µg/ml	>200^A µg/ml		> 320		COc1cc(OC)c2c(=O)cc(-c3ccccc3)oc2c1OC [Methyl ether (wogonin), 5,7,8-Trimethoxyflavone]	did not show any spot	1.68 ± 0.18 AAE μg of ascorbic acid/g	1.68 ± 0.18^G AAE μg	
	1.76 ± 0.15^^FG µg/ml				Cc1c(C)c2c(c(C)c1O)CCC(C)(C(=O)O)O2 (stereo not shown) [Trolox, trolox, reference compound]				
5.23 ± 0.53^GHa µg/ml	1.73 ± 0.06^FG µg/ml	low xanthine oxidase inhibitory activity	77.7	> 349	O=c1cc(-c2ccc(O)cc2)oc2c(O)c(O)cc(O)c12 [Isoscutellarein, 4′,5,7,8-Tetrahydroxyflavone]	strong radical scavenging activity		262.91 ± 4.99^A AAE μg	
